Results from patent publication US6617355B1, “Treating asthma by preventing and/or accomodating S-nitrosothiol breakdown” (The University of Virginia Patent Foundation, priority 1997, dated 2003).

What was measured:
[1] = test system: patient with severe asthma; experiment: Treatment of patients with severe asthma or respiratory failure (Examples I-IX); assay type: in vivo, human
Method: A child with severe asthma developing symptoms of dyspnea, tachypnea, wheezing and cough is administered a 50 mM solution of L-gamma-glutamyl-(o-carboxy)phenylhydrazide as an aerosol via inhalation at a dosage of 0.01 ml/kg.
A person with severe asthma with symptoms of dyspnea on exertion, cough and prolonged expiration is administered a 10 mM solution of bathocuproine disulfonate via inhalation as an aerosol at a dose of 0.01 ml/kg.
A person with severe asthma with chronic symptoms of night-time cough, dyspnea and wheezing is maintained on inhalations of an aerosol of a 10 mM solution of each of S-nitrosoglutathione and aurothioglucose, at a dosage of 0.01 ml/kg.
A child with severe asthma and impending respiratory failure with symptoms of wheezing, cough and cyanosis is given terbutaline (5 μg/kg/min) by continuous IV-infusion. […] The terbutaline is replaced with an equimolar amount of terbutaline substituted with S-nitrosothiol group.
A person has respiratory failure with symptoms of wheezing, cough and cyanosis.
A person with respiratory failure with symptoms as described in Example V is given inhalation of a 10 mmol solution of S-nitroso-D-cysteine, 0.01 ml/kg.
A severe asthmatic with chronic dyspnea is given 30 mg daily prednisone.
A severe asthmatic is treated with inhalation of 1 mg allopurinol.
A severe asthmatic is treated with inhalation of a 10 mM solution of each of S-nitrosomethylmercaptan and ethacrynic acid, at a dosage of 0.01 ml/kg.

[2] = test system: Guinea-pig tracheal rings; experiment: Relaxation of methacholine-contracted guinea-pig tracheal rings by S-nitrosoglutathione pre-incubated with or without lung fractions; assay type: cell-based; conditions: n=7
Method: Guinea-pig tracheal and lung parenchymal tissue were separately homogenized in 1 mM ethylenediaminetetraacetic acid, 50 mM TRIS HC1 buffer, pH 7.4, 10 mg/liter soybean trypsin inhibitor, 10 mg/liter pepstatin, 10 mg/liter chymostatin and 100 mg/liter phenylmethylsulfonyl fluoride at 4° C. and underwent centrifugation (5,000 g; 5 min) and filtration. The supernatant was loaded onto a DEAE cellulose column and eluted with a linear gradient of 0-250 mM NaCl. The S-nitrosoglutathione degrading activity was assayed as NO evolution. The results are depicted in FIG. 1 (fractions causing a net loss of NO are represented by diamonds).
Guinea-pig tracheal rings were suspended in Krebs-Henseleit buffer (pH 7.4, 37 degrees C., equilibrated with 95% oxygen/5% carbon dioxide) and equilibrated under one gram tension. Smooth muscle contraction was monitored using a force transducer. After contraction with 5 μM methacholine, rings were exposed to S-nitrosoglutathione which had been incubated (30 minutes, pH 7.4, 25 degrees C.) (a) in phosphate buffered saline alone, (b) with guinea-pig lung protein fractions having S-nitroglutathione breakdown activity isolated as described in Background Example 2, and (c) with active lung fractions and 100 μM aurothioglucose. […]

[3] = test system: patients with mild or moderate asthma; experiment: Treatment of patients with mild or moderate asthma (Examples X-XI); assay type: in vivo, human
Method: A child wakes up every night coughing and coughs on exertion. The patient is given inhalations of 0.01 ml/kg of a 10 mM solution of S-nitroso-D-cysteine.

With Oc1ncnc2[nH]ncc12 [allopurinol] the asthma symptoms ([1]; Example VIII: severe asthmatic, inhalation of 1 mg) was “Symptoms improve”.
For NC(CCC(=O)NNc1ccccc1C(=O)O)C(=O)O [L-gamma-glutamyl-(o-carboxy)phenylhydrazide], the asthma symptoms ([1]; Example I: child, severe asthma, 50 mM solution as aerosol via inhalation, 0.01 ml/kg) was “symptoms improve”.
In the case of OC[C@H]1O[C@H]([S-])[C@H](O)[C@@H](O)[C@@H]1O.[Au+] [aurothioglucose], the “restoration of S-nitrosoglutathione relaxation by inhibitor of breakdown” value ([2]; S-nitrosoglutathione incubated with active lung fractions and 100 μM aurothioglucose, p<0.001 at 50 μM) is reported as “partially restored”.
In the case of N[C@H](CSN=O)C(=O)O [S-nitroso-D-cysteine], the asthma symptoms ([1]; Example VI: person, respiratory failure, inhalation of 10 mmol solution, 0.01 ml/kg) is reported as “Improvement occurs” and the asthma symptoms ([3]; Example X: child, night cough and cough on exertion, inhalations of 0.01 ml/kg of 10 mM solution) is reported as “sleeps through the night and is able to participate in sports without shortness of breath”.
For N[C@@H](CCC(=O)N[C@@H](CSN=O)C(=O)NCC(=O)O)C(=O)O [S-nitrosoglutathione], the “relaxation of tracheal rings by S-nitrosoglutathione after incubation with active lung fractions” value ([2]; rings contracted with 5 μM methacholine, S-nitrosoglutathione incubated 30 minutes, pH 7.4, 25 degrees C with guinea-pig lung protein fractions, p<0.005 for all concentrations >500 nM) was “relaxation was nearly completely inhibited”.
For CC(C)(C)NCC(O)c1cc(O)cc(O)c1 (stereo not shown) [terbutaline], the asthma symptoms ([1]; Example IV: child, severe asthma, impending respiratory failure, continuous IV-infusion 5 μg/kg/min or equimolar amount) was “No improvement occurs”.
In the case of N[C@H](C(=O)O)[C@@H]1CC(Cl)=NO1 [acivicin], the asthma symptoms ([1]; Example V: person, respiratory failure, parenteral methylprednisone 4 mg/kg and terbutaline 5 μg/kg/min, then nebulized acivicin 0.01 mmol/kg) is reported as “symptoms improve” and the asthma symptoms ([3]; Example XI: person, wheezing and coughing three times a year, nebulized 0.01 mmol/kg) is reported as “becomes asymptomatic”.
With Cc1cc(-c2ccc(S(=O)(=O)O)cc2)c2ccc3c(-c4ccc(S(=O)(=O)O)cc4)cc(C)nc3c2n1 [bathocuproine disulfonate] the asthma symptoms ([1]; Example II: person, severe asthma, 10 mM solution via inhalation as aerosol, 0.01 ml/kg) was “symptoms improve”.
